Test results taken from ChEMBL document CHEMBL1122577, “Cardiac glycosides. 1. A systematic study of digitoxigenin D-glycosides” (J Med Chem, 1984).

Test: Inhibitory activity against Hog kidney Na+, K+ -Dependent ATPase
Design: species or system Sus scrofa
Settings: read-out: I50

Structure (SMILES)	IC50 [nM]
C[C@]12CC[C@H](O[C@@H]3C[C@@H](O)[C@H](O)[C@H](CO)O3)C[C@@H]1CC[C@@H]1[C@@H]2CC[C@]2(C)[C@@H](C3=CC(=O)OC3)CC[C@@]12O	28.2
C[C@@H]1O[C@@H](O[C@H]2CC[C@@]3(C)[C@@H](CC[C@@H]4[C@@H]3CC[C@]3(C)[C@@H](C5=CC(=O)OC5)CC[C@@]43O)C2)C[C@H](O)[C@@H]1O	7.04
C[C@]12CC[C@H](O[C@@H]3O[C@@H](CO)[C@H](O)[C@H](O)[C@@H]3O)CC1CC[C@@H]1[C@@H]2CC[C@]2(C)[C@@H](C3=CC(=O)OC3)CC[C@@]12O (stereo partly drawn)	64.5
C[C@]12CC[C@H](O[C@H]3C[C@H](O)[C@H](O)[C@H](CO)O3)C[C@@H]1CC[C@@H]1[C@@H]2CC[C@]2(C)[C@@H](C3=CC(=O)OC3)CC[C@@]12O	10.7
C[C@]12CC[C@H](O[C@@H]3O[C@@H](CO)[C@@H](O)[C@H](O)[C@@H]3O)CC1CC[C@@H]1[C@@H]2CC[C@]2(C)[C@@H](C3=CC(=O)OC3)CC[C@@]12O (stereo partly drawn)	11.7
C[C@]12CC[C@H](O[C@@H]3C[C@H](O)[C@H](O)[C@H](CO)O3)C[C@@H]1CC[C@@H]1[C@@H]2CC[C@]2(C)[C@@H](C3=CC(=O)OC3)CC[C@@]12O	93.3
C[C@]12CC[C@H](O)C[C@H]1CC[C@@H]1[C@@H]2CC[C@]2(C)[C@@H](C3=CC(=O)OC3)CC[C@]12O [DIGITOXIGENIN]	117
C[C@@H]1O[C@@H](O[C@H]2CC[C@@]3(C)[C@@H](CC[C@@H]4[C@@H]3CC[C@]3(C)[C@@H](C5=CC(=O)OC5)CC[C@@]43O)C2)C[C@@H]2OC(C)(C)O[C@H]12	41.8
